Source: patent US12187713B2, “Immunomodulators, compositions and methods thereof” (Betta Pharmaceuticals Co., Ltd, priority 2019, dated 2025)

Target: PD-1/PD-L1 (Homo sapiens (Human), UniProt Q9NZQ7)
Assay: PD-1/PD-L1 Binding Assay (Alphascreen)
Outline: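 PD-1/PD-L1 binding detected by anti-6×His acceptor and streptavidin donor beads after 120 min in the dark at 25 °C. Beforehand, the two proteins were incubated 15 min at 25 °C with inhibitor at 0.015–300 nM (1% DMSO). IC50 comes from a log concentration–response curve.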

Sequence of PD-1/PD-L1 (Q9NZQ7 19-238): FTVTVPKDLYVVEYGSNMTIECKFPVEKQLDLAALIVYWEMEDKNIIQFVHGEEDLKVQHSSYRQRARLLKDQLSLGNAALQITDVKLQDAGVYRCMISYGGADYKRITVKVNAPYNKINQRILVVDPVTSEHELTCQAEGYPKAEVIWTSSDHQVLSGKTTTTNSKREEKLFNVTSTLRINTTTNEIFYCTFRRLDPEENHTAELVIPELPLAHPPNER

IC50 (range symbols)	IC50 (numeric values)	Structure (SMILES)
5 to 50 nM		Cc1c(-c2nc3cc(CN4CCCC4)cc(C#N)c3[nH]2)cccc1-c1cccc(-c2nc3cc(CN4CCC[C@H]4C(=O)O)c(OC(F)F)cc3o2)c1C [Example 295, ((2-(3′-(7-cyano-5-(pyrrolidin-1-ylmethyl)-1H-benzo[d]imidazol-2-yl)-2,2′-dimethyl-[1,1′-biphenyl]-3-yl)-6-(difluoromethoxy)benzo[d]oxazol-5-yl)methyl)-L-proline]
0.1 to 5 nM		Cc1c(-c2nc3cc(CN4CC(C)(C)C4)ccc3o2)cccc1-c1cccc(-c2nc3cc(CN4CCC[C@H]4C(=O)O)c(OC(F)F)cc3o2)c1C [Example 312, ((6-(difluoromethoxy)-2-(3′-(5-((3,3-dimethylazetidin-1-yl)methyl)benzo[d]oxazol-2-yl)-2,2′-dimethyl-[1,1′-biphenyl]-3-yl)benzo[d]oxazol-5-yl)methyl)-L-proline]
5 to 50 nM		Cc1c(-c2nc3cc(CN4CC(S(C)(=O)=O)C4)c(OC(F)F)cc3o2)cccc1-c1cccc(-c2nc3cc(CN4CCC[C@H]4C(=O)O)c(OC(F)F)cc3o2)c1C [Example 41, ((6-(difluoromethoxy)-2-(3′-(6-(difluoromethoxy)-5-((3-(methylsulfonyl)azetidin-1-yl)methyl)benzo[d]oxazol-2-yl)-2,2′-dimethyl-[1,1′-biphenyl]-3-yl)benzo[d]oxazol-5-yl)methyl)-L-proline]
5 to 50 nM		Cc1c(-c2nc3c(o2)CCN(Cc2cccnc2)C3)cccc1-c1cccc(-c2nc3cc(CN4CCC[C@H]4C(=O)O)c(OC(F)F)cc3o2)c1C [Example 194, ((6-(difluoromethoxy)-2-(2,2′-dimethyl-3′-(5-(pyridin-3-ylmethyl)-4,5,6,7-tetrahydrooxazolo[4,5-c]pyridin-2-yl)-[1,1′-biphenyl]-3-yl)benzo[d]oxazol-5-yl)methyl)proline]
	32 nM	Cc1c(-c2nc3cc(CN4CC5(C4)CC5(F)F)c(OC(F)F)cc3o2)cccc1-c1cccc(-c2nc3cc(CN4CCC[C@H]4C(=O)O)c(OC(F)F)cc3o2)c1C [Example 76, ((2-(3′-(5-((1,1-difluoro-5-azaspiro[2.3]hexan-5-yl)methyl)-6-(difluoromethoxy)benzo[d]oxazol-2-yl)-2,2′-dimethyl-[1,1′-biphenyl]-3-yl)-6-(difluoromethoxy)benzo[d]oxazol-5-yl)methyl)-L-proline]
5 to 50 nM		Cc1c(-c2nc3c(o2)CCN(CC2CCC(=O)N2)C3)cccc1-c1cccc(-c2nc3cc(CN4CCC[C@H]4C(=O)O)c(OC(F)F)cc3o2)c1C (stereo partly shown) [Example 193, ((6-(difluoromethoxy)-2-(2,2′-dimethyl-3′-(5-((5-oxopyrrolidin-2-yl)methyl)-4,5,6,7-tetrahydrooxazolo[4,5-c]pyridin-2-yl)-[1,1′-biphenyl]-3-yl)benzo[d]oxazol-5-yl)methyl)proline]
5 to 50 nM		Cc1c(-c2nc3cc(CN4CCC[C@@H]4C(=O)O)c(OC(F)F)cc3o2)cccc1-c1cccc(-c2nc3cc(CN4CC(C)(C)C4)cnc3o2)c1C [Example 170, ((6-(difluoromethoxy)-2-(3′-(6-((3,3-dimethylazetidin-1-yl)methyl)oxazolo[5,4-b]pyridin-2-yl)-2,2′-dimethyl-[1,1′-biphenyl]-3-yl)benzo[d]oxazol-5-yl)methyl)-D-proline]
	1.7 nM	Cc1c(-c2nc3cc(CN4CCC[C@H]4C(=O)O)c(OC(F)F)cc3o2)cccc1-c1cccc(-c2nc3cc(CN4CC(C)(CO)C4)cc(C#N)c3o2)c1C [Example 129, ((2-(3′-(7-cyano-5-((3-(hydroxymethyl)-3-methylazetidin-1-yl)methyl)benzo[d]oxazol-2-yl)-2,2′-dimethyl-[1,1′-biphenyl]-3-yl)-6-(difluoromethoxy)benzo[d]oxazol-5-yl)methyl)-L-proline]
0.1 to 5 nM		Cc1c(-c2nc3cc(CN4CC5(COC5)C4)c(OC(F)F)cc3o2)cccc1-c1cccc(-c2nc3cc(CN4CCC[C@H]4C(=O)O)c(OC(F)F)cc3o2)c1C [Example 47, ((2-(3′-(5-((2-oxa-6-azaspiro[3.3]heptan-6-yl)methyl)-6-(difluoromethoxy)benzo[d]oxazol-2-yl)-2,2′-dimethyl-[1,1′-biphenyl]-3-yl)-6-(difluoromethoxy)benzo[d]oxazol-5-yl)methyl)-L-proline]
	1.6 nM	Cc1c(NC(=O)c2cn3c(n2)CNCC3)cccc1-c1cccc(-c2nc3cc(CN4CCC[C@H]4C(=O)O)c(OC(F)F)cc3o2)c1C [Example 303, ((6-(difluoromethoxy)-2-(2,2′-dimethyl-3′-(5,6,7,8-tetrahydroimidazo[1,2-a]pyrazine-2-carboxamido)-[1,1′-biphenyl]-3-yl)benzo[d]oxazol-5-yl)methyl)-L-proline]
	1.4 nM	Cc1c(-c2nc3c(o2)CCN(CCO)C3)cccc1-c1cccc(-c2nc3cc(CN4CCC[C@H]4C(=O)O)c(OC(F)F)cc3o2)c1C [Example 206, ((6-(difluoromethoxy)-2-(3′-(5-(2-hydroxyethyl)-4,5,6,7-tetrahydrooxazolo[4,5-c]pyridin-2-yl)-2,2′-dimethyl-[1,1′-biphenyl]-3-yl)benzo[d]oxazol-5-yl)methyl)-L-proline]
	4.4 nM	COC(=O)N[C@H](C(=O)N[C@H]1CCN(Cc2ccc(-c3cccc(-c4cccc(-c5nc6cc(CN7CCC[C@H]7C(=O)O)c(OC(F)F)cc6o5)c4C)c3C)cc2)C1)C(C)C [Example 257, ((6-(difluoromethoxy)-2-(4″-(((S)-3-((S)-2-((methoxycarbonyl)amino)-3-methylbutanamido)pyrrolidin-1-yl)methyl)-2,2′-dimethyl-[1,1′:3′,1″-terphenyl]-3-yl)benzo[d]oxazol-5-yl)methyl)-L-proline]
	0.88 nM	Cc1c(-c2nc3cc(CN4CCC[C@@H]4C(=O)O)c(OC(F)F)cc3o2)cccc1-c1cccc(-c2nc3cc(CN4CCC(C)C4)cc(C(F)(F)F)c3o2)c1C (stereo partly drawn) [Example 90, ((6-(difluoromethoxy)-2-(2,2′-dimethyl-3′-(5-((3-methylpyrrolidin-1-yl)methyl)-7-(trifluoromethyl)benzo [d]oxazol-2-yl)-[1,1′-biphenyl]-3-yl)benzo[d]oxazol-5-yl)methyl)-D-proline]
	2.5 nM	Cc1c(-c2nc3cc(CN(C)CCN(C)C)c(OC(F)F)cc3o2)cccc1-c1cccc(-c2nc3cc(CN4CCC[C@H]4C(=O)O)c(OC(F)F)cc3o2)c1C [Example 59, ((6-(difluoromethoxy)-2-(3′-(6-(difluoromethoxy)-5-(((2-(dimethylamino)ethyl)(methyl)amino)methyl)benzo [d]oxazol-2-yl)-2,2′-dimethyl-[1,1′-biphenyl]-3-yl)benzo[d]oxazol-5-yl)methyl)-L-proline]
0.1 to 5 nM		Cc1c(-c2nc3cc(CN(C)C[C@H]4CCCO4)c(OC(F)F)cc3o2)cccc1-c1cccc(-c2nc3cc(CN4CCC[C@H]4C(=O)O)c(OC(F)F)cc3o2)c1C [Example 30, ((6-(difluoromethoxy)-2-(3′-(6-(difluoromethoxy)-5-((methyl(((R)-tetrahydrofuran-2-yl)methyl)amino)methyl)benzo[d]oxazol-2-yl)-2,2′-dimethyl-[1,1′-biphenyl]-3-yl)benzo[d]oxazol-5-yl)methyl)-L-proline]
0.1 to 5 nM		Cc1c(-c2nc3cc(CN4CCC[C@H]4C(=O)O)c(OC(F)F)cc3o2)cccc1-c1cccc(-c2nc3cc(CN4CC[C@H](Cl)C4)cc(C#N)c3o2)c1C [Example 261, ((2-(3′-(5-(((S)-3-chloropyrrolidin-1-yl)methyl)-7-cyanobenzo [d]oxazol-2-yl)-2,2′-dimethyl-[1,1′-biphenyl]-3-yl)-6-(difluoromethoxy)benzo[d]oxazol-5-yl)methyl)-L-proline]
0.1 to 5 nM		Cc1c(-c2nc3cc(CN4CCC[C@H]4C(=O)O)c(OC(F)F)cc3o2)cccc1-c1cccc(-c2nc3cc(CN4CC(N(C)C)C4)cnc3o2)c1C [Example 116, ((6-(difluoromethoxy)-2-(3′-(6-((3-(dimethylamino)azetidin-1-yl)methyl)oxazolo [5,4-b]pyridin-2-yl)-2,2′-dimethyl-[1,1′-biphenyl]-3-yl)benzo[d]oxazol-5-yl)methyl)-L-proline]
5 to 50 nM		Cc1c(-c2nc3cc(CN4CCC[C@H]4C(=O)O)c(OC(F)F)cc3o2)cccc1-c1cccc(-c2nc3cc(CN4CCC(F)C4)cc(C(F)(F)F)c3o2)c1C (stereo partly drawn) [Example 166, ((6-(difluoromethoxy)-2-(3′-(5-((3-fluoropyrrolidin-1-yl)methyl)-7-(trifluoromethyl)benzo[d]oxazol-2-yl)-2,2′-dimethyl-[1,1′-biphenyl]-3-yl)benzo[d]oxazol-5-yl)methyl)-L-proline]
	1.8 nM	COc1cc(-c2cccc(-c3cccc(-c4nc5cc(CN6CCC[C@H]6C(=O)O)c(OC(F)F)cc5o4)c3C)c2C)cc(F)c1CN1CCCC1 [Example 235, ((6-(difluoromethoxy)-2-(3″-fluoro-5″- methoxy-2,2′-dimethyl-4″-(pyrrolidin-1-ylmethyl)-[1,1′:3′,1″-terphenyl]-3-yl)benzo[d]oxazol-5-yl)methyl)-L-proline]
	0.98 nM	Cc1c(-c2nc3cc(CN)c(OC(F)F)cc3o2)cccc1-c1cccc(-c2nc3cc(CN4CCC[C@H]4C(=O)O)c(OC(F)F)cc3o2)c1C [Example 24, ((2-(3′-(5-(aminomethyl)-6-(difluoromethoxy)benzo[d]oxazol-2-yl)-2,2′-dimethyl-[1,1′-biphenyl]-3-yl)-6-(difluoromethoxy)benzo[d]oxazol-5-yl)methyl)-L-proline]
0.1 to 5 nM		Cc1c(-c2nc3cc(CN4CCC[C@H]4C(=O)O)c(OC(F)F)cc3o2)cccc1-c1cccc(-c2nc3cc(CN4CC[C@H](C)C4)cc(C#N)c3o2)c1C [Example 130, ((2-(3′-(7-cyano-5-(((S)-3-methylpyrrolidin-1-yl)methyl)benzo[d]oxazol-2-yl)-2,2′-dimethyl-[1,1′-biphenyl]-3-yl)-6-(difluoromethoxy)benzo[d]oxazol-5-yl)methyl)-L-proline]
0.1 to 5 nM		Cc1c(-c2nc3cc(CN4CCCC4(C)C)ccc3o2)cccc1-c1cccc(-c2nc3cc(CN4CCC[C@H]4C(=O)O)c(OC(F)F)cc3o2)c1C [Example 311, ((6-(difluoromethoxy)-2-(3′-(5-((2,2-dimethylpyrrolidin-1-yl)methyl)benzo[d]oxazol-2-yl)-2,2′-dimethyl-[1,1′-biphenyl]-3-yl)benzo[d]oxazol-5-yl)methyl)-L-proline]
